From ChEMBL document CHEMBL1759834, “Synthesis, stereochemistry, antimicrobial evaluation and QSAR studies of 2,6-diaryltetrahydropyran-4-one thiosemicarbazones” (2011)
In brackets after ≈: the same amount, converted by molar mass.

Key:
Staphylococcus aureus = test: Antibacterial activity against Staphylococcus aureus ATCC 25825 after 24 hrs by twofold serial dilution method; assay type: functional; conditions: for MIC: Staphylococcus aureus, ATCC 25825, 24 h
Escherichia coli = test: Antibacterial activity against Escherichia coli ATCC 25835 after 24 hrs by twofold serial dilution method; assay type: functional; conditions: for MIC: Escherichia coli, ATCC 25835, 24 h
Pseudomonas aeruginosa = test: Antibacterial activity against Pseudomonas aeruginosa ATCC 10145 after 24 hrs by twofold serial dilution method; assay type: functional; conditions: for MIC: Pseudomonas aeruginosa, ATCC 10145, 24 h
Salmonella typhi = test: Antibacterial activity against Salmonella typhi ATCC 24915 after 24 hrs by twofold serial dilution method; assay type: functional, Salmonella enterica subsp. enterica serovar Typhi; conditions: for MIC: Salmonella enterica, ATCC 24915, 24 h
Bacillus subtilis = test: Antibacterial activity against Bacillus subtilis ATCC 451 after 24 hrs by twofold serial dilution method; assay type: functional; conditions: for MIC: Bacillus subtilis, ATCC 451, 24 h
Klebsiella pneumoniae = test: Antibacterial activity against Klebsiella pneumoniae ATCC 15490 after 24 hrs by twofold serial dilution method; assay type: functional; conditions: for MIC: Klebsiella pneumoniae, ATCC 15490, 24 h
Cryptococcus neoformans = test: Antifungal activity against Cryptococcus neoformans after 72 to 96 hrs by twofold serial dilution method; assay type: functional; conditions: for MIC: Cryptococcus neoformans
Candida albicans = test: Antifungal activity against Candida albicans after 24 hrs by twofold serial dilution method; assay type: functional; conditions: for MIC: Candida albicans, 24 h
Aspergillus niger = test: Antifungal activity against Aspergillus niger after 72 to 96 hrs by twofold serial dilution method; assay type: functional; conditions: for MIC: Aspergillus niger

| SMILES | -logMIC (Staphylococcus aureus) | MIC (Staphylococcus aureus) [µg/mL] | -logMIC (Escherichia coli) | MIC (Escherichia coli) [µg/mL] | -logMIC (Pseudomonas aeruginosa) | MIC (Pseudomonas aeruginosa) [µg/mL] | MIC (Salmonella typhi) [µg/mL] | -logMIC (Bacillus subtilis) | MIC (Bacillus subtilis) [µg/mL] | -logMIC (Klebsiella pneumoniae) | MIC (Klebsiella pneumoniae) [µg/mL] | -logMIC (Cryptococcus neoformans) | MIC (Cryptococcus neoformans) [µg/mL] | -logMIC (Candida albicans) | MIC (Candida albicans) [µg/mL] | -logMIC (Aspergillus niger) | MIC (Aspergillus niger) [µg/mL] | -logMIC (Salmonella typhi) |
| --- | --- | --- | --- | --- | --- | --- | --- | --- | --- | --- | --- | --- | --- | --- | --- | --- | --- | --- |
| CC[C@@H]1/C(=N/NC(=S)Nc2ccccc2)C[C@@H](c2ccccc2)O[C@H]1c1ccccc1 | 4.301 | 50 (≈ 116 µM) | 4 | 100 (≈ 233 µM) | 4.602 | 25 (≈ 58.2 µM) | 50 (≈ 116 µM) | 4 | 100 (≈ 233 µM) | 4 | 100 (≈ 233 µM) | 4.903 | 12.5 (≈ 29.1 µM) | 4 | 100 (≈ 233 µM) | 4.301 | 50 (≈ 116 µM) | – |
| C[C@@H]1/C(=N\NC(=S)Nc2ccccc2)[C@@H](C)[C@H](c2ccc(Br)cc2)O[C@@H]1c1ccc(Br)cc1 | 4.602 | 25 (≈ 42.6 µM) | 4 | 100 (≈ 170 µM) | 5.204 | 6.25 (≈ 10.6 µM) | 12.5 (≈ 21.3 µM) | 4.602 | 25 (≈ 42.6 µM) | 4.602 | 25 (≈ 42.6 µM) | 4.903 | 12.5 (≈ 21.3 µM) | 5.204 | 6.25 (≈ 10.6 µM) | 4.602 | 25 (≈ 42.6 µM) | – |
| C[C@@H]1/C(=N\NC(N)=S)[C@@H](C)[C@H](c2ccc(F)cc2)O[C@@H]1c1ccc(F)cc1 | 4.301 | 50 (≈ 128 µM) | 4.301 | 50 (≈ 128 µM) | 4 | 100 (≈ 257 µM) | 25 (≈ 64.2 µM) | 4.602 | 25 (≈ 64.2 µM) | 4.301 | 50 (≈ 128 µM) | 4.602 | 25 (≈ 64.2 µM) | 4 | 100 (≈ 257 µM) | 4 | 100 (≈ 257 µM) | – |
| C[C@@H]1/C(=N/NC(=S)Nc2ccccc2)C[C@@H](c2ccccc2)O[C@H]1c1ccccc1 | 4.301 | 50 (≈ 120 µM) | 4.301 | 50 (≈ 120 µM) | 4.301 | 50 (≈ 120 µM) | 100 (≈ 241 µM) | 4.301 | 50 (≈ 120 µM) | 4 | 100 (≈ 241 µM) | 4.903 | 12.5 (≈ 30.1 µM) | 4 | 100 (≈ 241 µM) | 4 | 100 (≈ 241 µM) | 4 |
| C[C@@H]1/C(=N\NC(=S)Nc2ccccc2)[C@@H](C)[C@H](c2cccc(Cl)c2)O[C@@H]1c1cccc(Cl)c1 | 4.301 | 50 (≈ 100 µM) | 4 | 100 (≈ 201 µM) | 4.602 | 25 (≈ 50.2 µM) | 12.5 (≈ 25.1 µM) | 4.602 | 25 (≈ 50.2 µM) | 4.903 | 12.5 (≈ 25.1 µM) | 4.602 | 25 (≈ 50.2 µM) | 4.602 | 25 (≈ 50.2 µM) | 4 | 100 (≈ 201 µM) | – |
| C[C@@H]1/C(=N\NC(N)=S)[C@@H](C)[C@H](c2ccc(Cl)cc2)O[C@@H]1c1ccc(Cl)cc1 | 4.602 | 25 (≈ 59.2 µM) | 4.301 | 50 (≈ 118 µM) | 4.301 | 50 (≈ 118 µM) | 25 (≈ 59.2 µM) | 4.602 | 25 (≈ 59.2 µM) | 4.602 | 25 (≈ 59.2 µM) | 4.602 | 25 (≈ 59.2 µM) | 4.602 | 25 (≈ 59.2 µM) | 4 | 100 (≈ 237 µM) | – |
| Cc1ccc([C@H]2O[C@@H](c3ccc(C)cc3)[C@H](C)/C(=N/NC(N)=S)[C@H]2C)cc1 | 4.301 | 50 (≈ 131 µM) | 4.602 | 25 (≈ 65.5 µM) | 4 | 100 (≈ 262 µM) | 50 (≈ 131 µM) | 4.301 | 50 (≈ 131 µM) | 4 | 100 (≈ 262 µM) | 4 | 100 (≈ 262 µM) | 4 | 100 (≈ 262 µM) | 4.301 | 50 (≈ 131 µM) | – |
| C[C@@H]1/C(=N\NC(=S)Nc2ccccc2)[C@@H](C)[C@H](c2ccc(F)cc2)O[C@@H]1c1ccc(F)cc1 | 4.301 | 50 (≈ 107 µM) | 4 | 100 (≈ 215 µM) | 4.903 | 12.5 (≈ 26.8 µM) | 25 (≈ 53.7 µM) | 4.301 | 50 (≈ 107 µM) | 4.301 | 50 (≈ 107 µM) | 5.204 | 6.25 (≈ 13.4 µM) | 4 | 100 (≈ 215 µM) | 4 | 100 (≈ 215 µM) | 4.602 |
| C[C@@H]1[C@H](O)[C@@H](C)/C=C/C=C/C=C/C=C/C=C/C=C/C=C/[C@H](O[C@@H]2O[C@H](C)[C@@H](O)[C@H](N)[C@@H]2O)C[C@@H]2O[C@](O)(C[C@@H](O)C[C@@H](O)[C@H](O)CC[C@@H](O)C[C@@H](O)CC(=O)O[C@H]1C)C[C@H](O)[C@H]2C(=O)O [AMPHOTERICIN B] | – | – | – | – | – | – | – | – | – | – | – | 4.602 | 25 (≈ 27.1 µM) | – | 25 (≈ 27.1 µM) | 4.301 | 50 (≈ 54.1 µM) | – |
| COc1ccc([C@H]2O[C@@H](c3ccc(OC)cc3)[C@H](C)/C(=N/NC(=S)Nc3ccccc3)[C@H]2C)cc1 | 4.903 | 12.5 (≈ 25.5 µM) | 4.602 | 25 (≈ 51.1 µM) | 4.602 | 25 (≈ 51.1 µM) | 100 (≈ 204 µM) | 4.903 | 12.5 (≈ 25.5 µM) | 4.602 | 25 (≈ 51.1 µM) | 3.698 | 200 (≈ 408 µM) | 5.204 | 6.25 (≈ 12.8 µM) | 4.602 | 25 (≈ 51.1 µM) | 4 |
| C[C@@H]1/C(=N\NC(=S)Nc2ccccc2)[C@@H](C)[C@H](c2ccc(Cl)cc2)O[C@@H]1c1ccc(Cl)cc1 | 4.602 | 25 (≈ 50.2 µM) | 4 | 100 (≈ 201 µM) | 5.204 | 6.25 (≈ 12.5 µM) | 25 (≈ 50.2 µM) | 4.602 | 25 (≈ 50.2 µM) | 4.903 | 12.5 (≈ 25.1 µM) | 5.204 | 6.25 (≈ 12.5 µM) | 4.903 | 12.5 (≈ 25.1 µM) | 4.301 | 50 (≈ 100 µM) | – |
| CC[C@@H]1/C(=N/NC(N)=S)C[C@@H](c2ccccc2)O[C@H]1c1ccccc1 | 4.301 | 50 (≈ 141 µM) | 4.602 | 25 (≈ 70.7 µM) | 4 | 100 (≈ 283 µM) | 50 (≈ 141 µM) | 4.301 | 50 (≈ 141 µM) | 4 | 100 (≈ 283 µM) | 4.301 | 50 (≈ 141 µM) | 3.698 | 200 (≈ 566 µM) | 3.698 | 200 (≈ 566 µM) | – |
| C[C@@H]1/C(=N\NC(=S)Nc2ccccc2)[C@@H](C)[C@H](c2ccccc2Cl)O[C@@H]1c1ccccc1Cl | 4.301 | 50 (≈ 100 µM) | 4.602 | 25 (≈ 50.2 µM) | 4.301 | 50 (≈ 100 µM) | 25 (≈ 50.2 µM) | 4.301 | 50 (≈ 100 µM) | 4.903 | 12.5 (≈ 25.1 µM) | 4.602 | 25 (≈ 50.2 µM) | 4.301 | 50 (≈ 100 µM) | 3.698 | 200 (≈ 401 µM) | – |
| COc1ccc([C@H]2O[C@@H](c3ccc(OC)cc3)[C@H](C)/C(=N/NC(N)=S)[C@H]2C)cc1 | 4.903 | 12.5 (≈ 30.2 µM) | 4.602 | 25 (≈ 60.5 µM) | 4.301 | 50 (≈ 121 µM) | 50 (≈ 121 µM) | 4.903 | 12.5 (≈ 30.2 µM) | 4.301 | 50 (≈ 121 µM) | 3.698 | 200 (≈ 484 µM) | 4.903 | 12.5 (≈ 30.2 µM) | 4.301 | 50 (≈ 121 µM) | – |
| C[C@@H]1/C(=N/NC(N)=S)C[C@@H](c2ccccc2)O[C@H]1c1ccccc1 | 4 | 100 (≈ 295 µM) | – | – | 3.698 | 200 (≈ 589 µM) | 50 (≈ 147 µM) | – | – | 4 | 100 (≈ 295 µM) | 4.301 | 50 (≈ 147 µM) | 3.698 | 200 (≈ 589 µM) | – | – | – |
| C[C@@H]1/C(=N\NC(N)=S)[C@@H](C)[C@H](c2ccc(Br)cc2)O[C@@H]1c1ccc(Br)cc1 | 4.602 | 25 (≈ 48.9 µM) | 4.301 | 50 (≈ 97.8 µM) | 4.903 | 12.5 (≈ 24.4 µM) | 25 (≈ 48.9 µM) | 4.301 | 50 (≈ 97.8 µM) | 4.602 | 25 (≈ 48.9 µM) | 4.301 | 50 (≈ 97.8 µM) | 4.301 | 50 (≈ 97.8 µM) | 3.698 | 200 (≈ 391 µM) | – |
| Cc1ccc([C@H]2O[C@@H](c3ccc(C)cc3)[C@H](C)/C(=N/NC(=S)Nc3ccccc3)[C@H]2C)cc1 | 4 | 100 (≈ 219 µM) | 4.301 | 50 (≈ 109 µM) | 4 | 100 (≈ 219 µM) | 50 (≈ 109 µM) | 4.301 | 50 (≈ 109 µM) | – | – | 4.301 | 50 (≈ 109 µM) | 5.204 | 6.25 (≈ 13.7 µM) | 4.602 | 25 (≈ 54.6 µM) | – |
